According to patent US4965280A, “Antifungal carbinols” (E. I. Du Pont de Nemours and Company, priority 1989, dated 1990):

Tests used:
[1] = system: COCKLEBUR; test: Test D; assay type: in vivo, Xanthium pensylvanicum
[2] = system: JOHNSONGRASS; test: Test D; assay type: in vivo, Sorghum halepense
[3] = system: G4646 CORN; test: Test D Corn and Sorghum Herbicide Test; assay type: in vivo, Zea mays
[4] = system: REDROOT PIGWEED; test: Test D; assay type: in vivo, Amaranthus retroflexus
[5] = system: BARNYARDGRASS; test: Test D; assay type: in vivo, Echinochloa crus-galli
Procedure: The Corn and Sorghum Herbicide Test included the following species in both the preemergence and postemergence evaluations:
Postemergence plantings were grown in Sassafras sandy loam soil. Corn and soybeans were grown in separate 25 cm diameter containers. Sorghum and the seven grass weed species were grown in two 18 cm diameter containers, 4 species per container. The seven broadleaf weed species were also grown in two 18 cm diameter containers, 4 species in one container, 3 species in the second container. One additional planting of corn in an 18 cm diameter container was made. The soil surface of this additional container of corn was covered with the absorbent, perlite, before spray treatment so that test chemicals would enter the plant only via the foliage. The plants were grown 10-21 days, dependent upon the species and then sprayed postemergence with the test chemicals dissolved in a nonpytotoxic solvent.
Preemergence plantings were grown in fertilized Tama silt loam soil. These plantings are identical to those described in the postemergence section, with the exception of the corn planting having perlite covering the soil surface. These plantings were made the day of or the day before spraying the test chemicals dissolved in a nonphytotoxic solvent.
Treated plants and controls were maintained in the greenhouse for 2 to 4 weeks. Visual planting response ratings were made on a percentage scale of 0 to 100 in comparison with a control where 0=no injury, and 100=death.

[6] = system: LARGE CRABGRASS; test: Test D; assay type: in vivo, Digitaria sanguinalis
[7] = system: LAMBSQUARTER; test: Test D; assay type: in vivo, Chenopodium album
[8] = system: JIMSONWEED; test: Test D; assay type: in vivo, Datura stramonium

Measured: plant response

C=C(c1ccccc1Cl)C(O)(Cn1cncn1)c1ccc(Cl)cc1Cl (stereo not drawn) [Example 33, 2-(2,4-Dichlorophenyl)-3-(2-chlorophenyl)-1-(1H-1,2,4-triazol-1-yl)-3-buten-2-ol]
0%: [1]; POSTEMERGENCE 0250 GM/HA | [1]; POSTEMERGENCE 0500 GM/HA | [1]; POSTEMERGENCE 1000 GM/HA | [1]; PREEMERGENCE 0250 GM/HA | [1]; PREEMERGENCE 0500 GM/HA | [1]; PREEMERGENCE 1000 GM/HA | [2]; POSTEMERGENCE 0250 GM/HA | [2]; POSTEMERGENCE 0500 GM/HA | [2]; POSTEMERGENCE 1000 GM/HA | [2]; PREEMERGENCE 0250 GM/HA | [2]; PREEMERGENCE 0500 GM/HA | [2]; PREEMERGENCE 1000 GM/HA | [3]; POSTEMERGENCE 0250 GM/HA | [3]; POSTEMERGENCE 0500 GM/HA | [3]; POSTEMERGENCE 1000 GM/HA | [3]; PREEMERGENCE 0250 GM/HA | [3]; PREEMERGENCE 0500 GM/HA | [3]; PREEMERGENCE 1000 GM/HA | [4]; POSTEMERGENCE 0250 GM/HA | [4]; POSTEMERGENCE 0500 GM/HA | [4]; POSTEMERGENCE 1000 GM/HA | [4]; PREEMERGENCE 0250 GM/HA | [4]; PREEMERGENCE 0500 GM/HA | [4]; PREEMERGENCE 1000 GM/HA | [5]; POSTEMERGENCE 0250 GM/HA | [5]; POSTEMERGENCE 0500 GM/HA | [5]; POSTEMERGENCE 1000 GM/HA | [5]; PREEMERGENCE 0250 GM/HA | [5]; PREEMERGENCE 0500 GM/HA | [5]; PREEMERGENCE 1000 GM/HA | [6]; POSTEMERGENCE 0250 GM/HA | [6]; POSTEMERGENCE 0500 GM/HA | [6]; POSTEMERGENCE 1000 GM/HA | [6]; PREEMERGENCE 0250 GM/HA | [6]; PREEMERGENCE 0500 GM/HA | [6]; PREEMERGENCE 1000 GM/HA | [7]; POSTEMERGENCE 0250 GM/HA | [7]; POSTEMERGENCE 0500 GM/HA | [7]; POSTEMERGENCE 1000 GM/HA | [7]; PREEMERGENCE 0250 GM/HA | [7]; PREEMERGENCE 0500 GM/HA | [7]; PREEMERGENCE 1000 GM/HA | [8]; POSTEMERGENCE 0250 GM/HA | [8]; POSTEMERGENCE 0500 GM/HA | [8]; POSTEMERGENCE 1000 GM/HA | [8]; PREEMERGENCE 0250 GM/HA | [8]; PREEMERGENCE 0500 GM/HA | [8]; PREEMERGENCE 1000 GM/HA
